Assay results from patent US9187472B2 (AbbVie Inc., priority 2012, dated 2015).

What was measured:
PC3 cells = assay: NAMPT Cell Proliferation Assay; format: cell-based; details: Homo sapiens, PC-3, 120 h, 5 days incubation, cell viability by Cell Titer Glo
Method in brief: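 Seed PC3 at 500 cells/well (RPMI, 10% HI-FBS), attach overnight; add compound, 10-fold series 10 μM → 1×10^−5 μM; incubate 5 d, 37° C/5% CO2; luminescent viability readout; fit % inhibition sigmoidally for IC50.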

[1] = target: NAMPT (human, recombinant, C-terminally His-tagged) (Homo sapiens, UniProt P43490); assay: Time-Resolved Fluorescence Resonance Energy Transfer (TR-FRET) Binding Assay of NAMPT; details: without substrates; 6.8 nM NAMPT, 200 nM probe, 3 hours equilibration
Method in brief: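 A TR-FRET probe-displacement assay used 6.8 nM His-tagged recombinant human NAMPT, 200 nM Oregon Green 488-labelled nicotinamide-competitive probe and 1 nM Tb-anti-His antibody. Buffer was HEPES pH 7.5 with NaCl, MgCl2, DTT and glycerol, plus 2% DMSO, equilibrated 3 h at room temperature. Em520/Em495 ratios, normalized to controls, gave IC50 by four-parameter logistic fit.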

NAMPT = NAMPT (Homo sapiens, UniProt P43490); assay: TR-FRET Binding Assay of NAMPT with PRPP; details: with 200 μM PRPP and 2.5 mM ATP; 2 nM NAMPT, 2 nM probe, 16 hours equilibration
Method in brief: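 Human NAMPT (2 nM) with 2 nM probe and 1 nM Tb-anti-His antibody, plus 200 μM PRPP and 2.5 mM ATP, 2% DMSO. TR-FRET read after 16 h equilibration, permitting possible enzymatic modification of test compounds; data processing as for the substrate-free format.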

Chain of NAMPT (P43490 whole entry): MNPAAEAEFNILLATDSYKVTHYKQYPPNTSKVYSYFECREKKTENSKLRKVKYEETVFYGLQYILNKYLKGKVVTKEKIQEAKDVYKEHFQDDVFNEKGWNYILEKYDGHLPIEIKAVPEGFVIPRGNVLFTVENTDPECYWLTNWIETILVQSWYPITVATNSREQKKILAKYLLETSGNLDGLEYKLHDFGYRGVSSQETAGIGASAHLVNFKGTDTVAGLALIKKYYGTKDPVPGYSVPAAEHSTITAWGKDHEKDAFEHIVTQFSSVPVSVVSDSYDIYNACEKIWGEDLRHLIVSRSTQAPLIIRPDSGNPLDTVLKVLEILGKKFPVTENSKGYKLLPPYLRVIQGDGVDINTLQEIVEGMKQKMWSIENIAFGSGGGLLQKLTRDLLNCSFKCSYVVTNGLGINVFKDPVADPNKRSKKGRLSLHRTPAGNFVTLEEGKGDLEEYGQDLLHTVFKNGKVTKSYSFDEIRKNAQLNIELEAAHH
Chain of NAMPT (human, recombinant, C-terminally His-tagged) (P43490 whole entry): as above

| SMILES | IC50 (PC3 cells) | IC50 [1] | IC50 (NAMPT) |
| --- | --- | --- | --- |
| O=C(NCc1ccn2ccnc2c1)c1ccc(C2CCN(S(=O)(=O)C3CC3)C2)cc1 (stereo not drawn) [Example 626, 4-[1-(cyclopropylsulfonyl)pyrrolidin-3-yl]-N-(imidazo[1,2-a]pyridin-7-ylmethyl)benzamide] | 80.7 nM | 645 nM | 0.793 nM |
| O=C(NCc1ccn2ccnc2c1)c1ccc(C2CCN(S(=O)(=O)c3ccccc3)C2)cc1 (stereo not drawn) [Example 627, N-(imidazo[1,2-a]pyridin-7-ylmethyl)-4-[1-(phenylsulfonyl)pyrrolidin-3-yl]benzamide] | 17.5 nM | 211 nM | 0.71 nM |
| CC1CC1C(=O)N1CC(c2ccc(C(=O)NCc3ccn4ccnc4c3)cc2)C1 (stereo not drawn) [Example 628, N-(imidazo[1,2-a]pyridin-7-ylmethyl)-4-{1-[(2-methylcyclopropyl)carbonyl]azetidin-3-yl}benzamide] | 43.6 nM | 706 nM | 0.978 nM |
| O=C(NCc1ccn2ccnc2c1)c1ccc(C2CN(C(=O)CC3CCCC3)C2)cc1 [Example 629, 4-[1-(cyclopentylacetyl)azetidin-3-yl]-N-(imidazo[1,2-a]pyridin-7-ylmethyl)benzamide] | 65.2 nM | 230 nM | 0.643 nM |
| CCC(C)CC(=O)N1CC(c2ccc(C(=O)NCc3ccn4ccnc4c3)cc2)C1 (stereo not drawn) [Example 630, N-(imidazo[1,2-a]pyridin-7-ylmethyl)-4-[1-(3-methylpentanoyl)azetidin-3-yl]benzamide] | 40.4 nM | 266 nM | 0.563 nM |
| O=C(NCc1ccn2ccnc2c1)c1ccc(C2CN(C(=O)C3CCCC3)C2)cc1 [Example 631, 4-[1-(cyclopentylcarbonyl)azetidin-3-yl]-N-(imidazo[1,2-a]pyridin-7-ylmethyl)benzamide] | 77.2 nM | 616 nM | 1.26 nM |
| CC1(C(=O)N2CC(c3ccc(C(=O)NCc4ccn5ccnc5c4)cc3)C2)CC1 [Example 632, N-(imidazo[1,2-a]pyridin-7-ylmethyl)-4-{1-[(1-methylcyclopropyl)carbonyl]azetidin-3-yl}benzamide] | 32.3 nM | 270 nM | 0.698 nM |
| CC(C)(C)C(=O)N1CC(c2ccc(C(=O)NCc3ccn4ccnc4c3)cc2)C1 [Example 633, 4-[1-(2,2-dimethylpropanoyl)azetidin-3-yl]-N-(imidazo[1,2-a]pyridin-7-ylmethyl)benzamide] | 12 nM | 335 nM | 0.707 nM |
| O=C(NCc1ccn2ccnc2c1)c1ccc(C2CN(C(=O)c3cncs3)C2)cc1 [Example 634, N-(imidazo[1,2-a]pyridin-7-ylmethyl)-4-[1-(1,3-thiazol-5-ylcarbonyl)azetidin-3-yl]benzamide] | 83.5 nM | 353 nM | 0.648 nM |
| O=C(NCc1ccn2ccnc2c1)c1ccc(C2CN(C(=O)c3cnccn3)C2)cc1 [Example 635, N-(imidazo[1,2-a]pyridin-7-ylmethyl)-4-[1-(pyrazin-2-ylcarbonyl)azetidin-3-yl]benzamide] | 50 nM | 462 nM | 0.975 nM |
| COc1ccccc1C(=O)N1CC(c2ccc(C(=O)NCc3ccn4ccnc4c3)cc2)C1 [Example 636, N-(imidazo[1,2-a]pyridin-7-ylmethyl)-4-[1-(2-methoxybenzoyl)azetidin-3-yl]benzamide] | 18.4 nM | 238 nM | 0.915 nM |
| O=C(NCc1ccn2ccnc2c1)c1ccc(C2CN(C(=O)c3cscn3)C2)cc1 [Example 637, N-(imidazo[1,2-a]pyridin-7-ylmethyl)-4-[1-(1,3-thiazol-4-ylcarbonyl)azetidin-3-yl]benzamide] | 81.1 nM | 360 nM | 0.421 nM |
| O=C(NCc1ccn2ccnc2c1)c1ccc(C2CN(C(=O)c3ccccc3F)C2)cc1 [Example 638, 4-[1-(2-fluorobenzoyl)azetidin-3-yl]-N-(imidazo[1,2-a]pyridin-7-ylmethyl)benzamide] | 2.61 nM | 16.6 nM | 0.545 nM |
| O=C(NCc1ccn2ccnc2c1)c1ccc(C2CN(C(=O)c3ccco3)C2)cc1 [Example 639, 4-[1-(furan-2-ylcarbonyl)azetidin-3-yl]-N-(imidazo[1,2-a]pyridin-7-ylmethyl)benzamide] | 58.1 nM | 215 nM | 0.713 nM |
| O=C(NCc1ccn2ccnc2c1)c1ccc(C2CN(C(=O)c3cccc(F)c3)C2)cc1 [Example 640, 4-[1-(3-fluorobenzoyl)azetidin-3-yl]-N-(imidazo[1,2-a]pyridin-7-ylmethyl)benzamide] | 50 nM | 170 nM | 0.817 nM |
| O=C(NCc1ccn2ccnc2c1)c1ccc(C2CN(C(=O)c3ccc(F)cc3F)C2)cc1 [Example 641, 4-[1-(2,4-difluorobenzoyl)azetidin-3-yl]-N-(imidazo[1,2-a]pyridin-7-ylmethyl)benzamide] | 9.99 nM | 74.8 nM | 0.684 nM |
| Cn1ccc(C(=O)N2CC(c3ccc(C(=O)NCc4ccn5ccnc5c4)cc3)C2)n1 [Example 642, N-(imidazo[1,2-a]pyridin-7-ylmethyl)-4-{1-[(1-methyl-1H-pyrazol-3-yl)carbonyl]azetidin-3-yl}benzamide] | 94.9 nM | 454 nM | 0.532 nM |
| O=C(NCc1ccn2ccnc2c1)c1ccc(C2CN(C(=O)c3ccccc3Cl)C2)cc1 [Example 643, 4-[1-(2-chlorobenzoyl)azetidin-3-yl]-N-(imidazo[1,2-a]pyridin-7-ylmethyl)benzamide] | 6.9 nM | 28 nM | 0.552 nM |
| Cc1ccccc1C(=O)N1CC(c2ccc(C(=O)NCc3ccn4ccnc4c3)cc2)C1 [Example 644, N-(imidazo[1,2-a]pyridin-7-ylmethyl)-4-[1-(2-methylbenzoyl)azetidin-3-yl]benzamide] | 4.08 nM | 81.7 nM | 0.69 nM |
| O=C(NCc1ccn2ccnc2c1)c1ccc(C2CN(C(=O)c3ccc(Cl)cc3)C2)cc1 [Example 645, 4-[1-(4-chlorobenzoyl)azetidin-3-yl]-N-(imidazo[1,2-a]pyridin-7-ylmethyl)benzamide] | 34 nM | 91 nM | 0.474 nM |
| O=C(NCc1ccn2ccnc2c1)c1ccc(C2CN(C(=O)c3cccc(Cl)c3)C2)cc1 [Example 646, 4-[1-(3-chlorobenzoyl)azetidin-3-yl]-N-(imidazo[1,2-a]pyridin-7-ylmethyl)benzamide] | 130 nM | 195 nM | 0.51 nM |
| CCC(C)(C)C(=O)N1CC(c2ccc(C(=O)NCc3ccn4ccnc4c3)cc2)C1 [Example 647, 4-[1-(2,2-dimethylbutanoyl)azetidin-3-yl]-N-(imidazo[1,2-a]pyridin-7-ylmethyl)benzamide] | 6.99 nM | 173 nM | 0.672 nM |
| O=C(NCc1ccn2ccnc2c1)c1ccc(C2CN(C(=O)c3cc(F)cc(F)c3)C2)cc1 [Example 648, 4-[1-(3,5-difluorobenzoyl)azetidin-3-yl]-N-(imidazo[1,2-a]pyridin-7-ylmethyl)benzamide] | 203 nM | 661 nM | 1.06 nM |
| O=C(NCc1ccn2ccnc2c1)c1ccc(C2CN(C(=O)c3ccc(F)cc3)C2)cc1 [Example 649, 4-[1-(4-fluorobenzoyl)azetidin-3-yl]-N-(imidazo[1,2-a]pyridin-7-ylmethyl)benzamide] | 70.6 nM | 203 nM | 0.749 nM |
| Cc1ccc(C(=O)N2CC(c3ccc(C(=O)NCc4ccn5ccnc5c4)cc3)C2)cc1 [Example 650, N-(imidazo[1,2-a]pyridin-7-ylmethyl)-4-[1-(4-methylbenzoyl)azetidin-3-yl]benzamide] | 58.3 nM | 153 nM | 1.11 nM |
| CC(C)CC(=O)N1CC(c2ccc(C(=O)NCc3ccn4ccnc4c3)cc2)C1 [Example 651, N-(imidazo[1,2-a]pyridin-7-ylmethyl)-4-[1-(3-methylbutanoyl)azetidin-3-yl]benzamide] | 64.8 nM | 276 nM | 0.715 nM |
| CC(C)(C)CC(=O)N1CC(c2ccc(C(=O)NCc3ccn4ccnc4c3)cc2)C1 [Example 652, 4-[1-(3,3-dimethylbutanoyl)azetidin-3-yl]-N-(imidazo[1,2-a]pyridin-7-ylmethyl)benzamide] | 34.6 nM | 535 nM | 1.16 nM |
| N#Cc1cccc(C(=O)N2CC(c3ccc(C(=O)NCc4ccn5ccnc5c4)cc3)C2)c1 [Example 653, 4-[1-(3-cyanobenzoyl)azetidin-3-yl]-N-(imidazo[1,2-a]pyridin-7-ylmethyl)benzamide] | 715 nM | 831 nM | 0.893 nM |
| COc1cccc(C(=O)N2CC(c3ccc(C(=O)NCc4ccn5ccnc5c4)cc3)C2)c1 [Example 654, N-(imidazo[1,2-a]pyridin-7-ylmethyl)-4-[1-(3-methoxybenzoyl)azetidin-3-yl]benzamide] | 67.9 nM | 213 nM | 0.945 nM |
| COc1ccc(C(=O)N2CC(c3ccc(C(=O)NCc4ccn5ccnc5c4)cc3)C2)cc1 [Example 655, N-(imidazo[1,2-a]pyridin-7-ylmethyl)-4-[1-(4-methoxybenzoyl)azetidin-3-yl]benzamide] | 68.8 nM | 230 nM | 0.998 nM |
